Columns and labels:
hα2A receptor = target: T1, hα2A receptor (Homo sapiens, UniProt P08913); test: Radioligand binding experiment for α2A-adrenergic receptor ([3H]-raulwolscine); conditions: CHO cell membranes with human α2A receptor, [3H]raulwolscine 1 nM; read-out: pIC50 α2A (converted)
T1 construct: expressed in transfected cells; host or cells: CHO cells
T1 sequence (P08913 1-465): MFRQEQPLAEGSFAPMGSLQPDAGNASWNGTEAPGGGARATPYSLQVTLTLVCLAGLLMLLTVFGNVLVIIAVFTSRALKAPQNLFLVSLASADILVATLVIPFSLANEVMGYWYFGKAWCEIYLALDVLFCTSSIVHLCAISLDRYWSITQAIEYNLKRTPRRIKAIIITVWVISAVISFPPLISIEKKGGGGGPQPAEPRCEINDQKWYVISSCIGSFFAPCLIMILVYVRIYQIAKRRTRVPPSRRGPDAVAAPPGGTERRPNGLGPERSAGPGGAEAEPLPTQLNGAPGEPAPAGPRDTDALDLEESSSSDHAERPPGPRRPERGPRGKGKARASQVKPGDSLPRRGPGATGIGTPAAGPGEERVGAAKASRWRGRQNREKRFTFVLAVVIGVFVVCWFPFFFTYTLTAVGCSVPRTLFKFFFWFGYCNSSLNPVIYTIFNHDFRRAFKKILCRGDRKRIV
Description: (§1) The interaction of the compounds of Formula (I) with hα2-receptors and h5-HT-transporters was assessed in in vitro radioligand binding experiments. In general, a low concentration of a radioligand with a high binding affinity for a particular receptor or transporter is incubated with a sample of a tissue preparation enriched in a particular receptor or transporter or with a preparation of cells expressing cloned human receptors in a buffered medium. During the incubation, the radioligand binds to the receptor or transporter. When equilibrium of binding is reached, the receptor bound radioactivity is separated from the non-bound radioactivity, and the receptor- or transporter-bound activity is counted. The interaction of the test compounds with the receptor is assessed in competition binding experiments. Various concentrations of the test compound are added to the incubation mixture containing the receptor- or transporter preparation and the radioligand. The test compound in proportion to its binding affinity and its concentration inhibits binding of the radioligand. The radioligand used for hα2A, hα2B and hα2C receptor binding was [^3H]-raulwolscine and for the h5-HT transporter was [^3H]paroxetine.
(§2) CHO cells, stabile transfected with human adrenergic-α2A-, -α2B or α2C receptor cDNA, were cultured in Dulbecco's Modified Eagle's Medium (DMEM)/Nutrient mixture Ham's F12 (ratio 1:1)(Gibco, Gent-Belgium) supplemented with 10% heat inactivated fetal calf serum (Life Technologies, Merelbeke-Belgium) and antibiotics (100 IU/ml penicillin G, 100 μg/ml streptomycin sulphate, 110 μg/ml pyruvic acid and 100 μg/ml L-glutamine). One day before collection, cells were induced with 5 mM sodiumbutyrate. Upon 80-90% of confluence, cells were scraped in phosphate buffered saline without Ca^2+ and Mg^2+ and collected by centrifugation at 1500×g for 10 min. The cells were homogenised in Tris-HCl 50 mM using an Ultraturrax homogenizer and centrifuged for 10 min at 23,500×g. The pellet was washed once by resuspension and rehomogenization and the final pellet was resuspended in Tris-HCl, divided in 1 ml aliquots and stored at −70° C.
(§3) Membranes were thawed and re-homogenized in incubation buffer (glycylglycine 25 mM, pH 8.0). In a total volume of 500 μl, 2-10 μg protein was incubated with [^3H]raulwolscine (NET-722) (New England Nuclear, USA) (1 nM final concentration) with or without competitor for 60 min at 25° C. followed by rapid filtration over GF/B filter using a Filtermatel 96 harvester (Packard, Meriden, Conn.). Filters were rinsed extensively with ice-cold rinsing buffer (Tris-HCl 50 mM pH 7.4). Filter-bound radioactivity was determined by scintillation counting in a Topcount (Packard, Meriden, Conn.) and results were expressed as counts per minute (cpm). Non-specific binding was determined in the presence of 1 μM oxymetazoline for hα2A- and hα2B receptors and 1 μM spiroxatrine for hα2C receptors.
(§4) Data from assays in the presence of compound were calculated as a percentage of total binding measured in the absence of test compound. Inhibition curves, plotting percent of total binding versus the log value of the concentration of the test compound, were automatically generated, and sigmoidal inhibition curves were fitted using non-linear regression. The pIC50 values of test compounds were derived from individual curves.

hα2C receptor = target: T2, hα2C receptor (Homo sapiens, UniProt P18825); test: Radioligand binding experiment for α2C-adrenergic receptor ([3H]-raulwolscine); conditions: CHO cell membranes with human α2C receptor, [3H]raulwolscine 1 nM; read-out: pIC50 α2C (converted)
T2 construct: expressed in transfected cells; host or cells: CHO cells
T2 sequence (P18825 1-462): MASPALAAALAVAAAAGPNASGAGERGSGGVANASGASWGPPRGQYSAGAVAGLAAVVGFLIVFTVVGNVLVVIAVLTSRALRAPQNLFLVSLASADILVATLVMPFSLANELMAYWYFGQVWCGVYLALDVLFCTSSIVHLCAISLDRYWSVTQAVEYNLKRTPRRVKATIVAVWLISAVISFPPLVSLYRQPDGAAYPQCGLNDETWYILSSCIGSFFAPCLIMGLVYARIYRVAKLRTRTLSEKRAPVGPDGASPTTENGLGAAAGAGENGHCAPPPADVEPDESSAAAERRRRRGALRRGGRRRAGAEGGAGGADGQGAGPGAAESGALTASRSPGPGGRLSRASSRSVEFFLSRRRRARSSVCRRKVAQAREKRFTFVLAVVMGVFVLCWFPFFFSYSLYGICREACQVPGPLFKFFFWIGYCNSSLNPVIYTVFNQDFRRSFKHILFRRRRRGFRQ
Description: as §1, §2, §3, §4

h5-HT transporter = target: T3, h5-HT transporter (Homo sapiens, UniProt P31645); test: Radioligand binding experiment for 5-HT transporter ([3H]paroxetine); conditions: human platelet membranes, [3H]paroxetine 0.5 nM
T3 construct: Human platelet membranes (Oceanix Biosciences Corporation, Hanover, Md., USA) were thawed; tissue Oceanix Biosciences Corporation; host or cells: human platelet membranes
Description: as §1
Human platelet membranes (Oceanix Biosciences Corporation, Hanover, Md., USA) were thawed, diluted in buffer (Tris-HCl 50 mM, 120 mM NaCl and 5 mM KCl) and quickly (max 3 s) homogenised with an Ultraturrax homogenizer. In a total volume of 250 μL, 50-100 μg protein was incubated with [^3H]paroxetine (NET-869) (New England Nuclear, USA) (0.5 nM final concentration) with or without competitor for 60 min at 25° C. Incubation was stopped by rapid filtration of the incubation mixture over GF/B filters, pre-wetted with 0.1% polyethyleneamine, using a Filtermatel 96 harvester (Packard, Meriden, Conn.). Filters were rinsed extensively with ice-cold buffer and radioactivity on the filters was counted in a Topcount liquid scintillation counter (Packard, Meriden, Conn.). Data were expressed as cpm. Imipramine (at 1 μM final concentration) was used to determine the non-specific binding.
as §4

T3 sequence (P31645 whole entry): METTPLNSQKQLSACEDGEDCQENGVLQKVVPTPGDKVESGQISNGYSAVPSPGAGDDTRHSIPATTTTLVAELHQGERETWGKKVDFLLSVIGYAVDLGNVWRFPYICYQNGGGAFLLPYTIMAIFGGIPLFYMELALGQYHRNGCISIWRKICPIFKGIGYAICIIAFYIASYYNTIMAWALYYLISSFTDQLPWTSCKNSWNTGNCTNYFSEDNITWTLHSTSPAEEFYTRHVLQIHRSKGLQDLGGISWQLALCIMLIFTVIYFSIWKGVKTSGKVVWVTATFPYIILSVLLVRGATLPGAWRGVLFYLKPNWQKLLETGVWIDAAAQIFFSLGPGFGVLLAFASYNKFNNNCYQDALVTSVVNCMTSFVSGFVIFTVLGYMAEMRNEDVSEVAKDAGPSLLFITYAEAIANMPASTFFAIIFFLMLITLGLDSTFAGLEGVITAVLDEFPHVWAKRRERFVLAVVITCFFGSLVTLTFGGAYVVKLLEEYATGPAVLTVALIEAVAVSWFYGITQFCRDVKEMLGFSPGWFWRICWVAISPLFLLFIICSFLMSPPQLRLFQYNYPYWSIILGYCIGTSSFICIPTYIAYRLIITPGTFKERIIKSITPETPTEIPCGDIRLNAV

SMILES | IC50 (hα2A receptor) [nM] | IC50 (hα2C receptor) [nM] | IC50 (h5-HT transporter) [nM]
COc1cc2c(cc1NC(=O)C1CCC1)OCC1C2=NOC1CN1CCN(CC(C)=Cc2ccc(F)cc2)CC1 (stereo not drawn) [Compound 115] | 39.8 | 39.8 | 25.1
CC(=Cc1ccc(F)cc1)CN1CCN(CC2ON=C3c4ccc(N(C)CCNCC(C)O)cc4OCC32)CC1 (stereo not drawn) [Compound 119] | 10 | 3.16 | 3.16
CCCCCNc1ccc2c(c1)OCC1C2=NOC1CN1CCN(CC(C)=Cc2ccc(F)cc2)CC1 (stereo not drawn) [Compound 133] | 126 | 126 | 126
CC(=Cc1ccccc1)CN1CCN(CC2ON=C3c4ccc(N(C)CCO)cc4OCC32)CC1 (single isomer, unassigned) [Compound 33] | 631 | 39.8 | 12.6
CC(=Cc1ccc(F)cc1)CN1CCN(CC2ON=C3c4ccc(N(C)CCN5CCC5)cc4OCC32)CC1 (stereo not drawn) [Compound 123] | 10 | 3.16 | 7.94
CC(=Cc1ccc(F)cc1)CN1CCN(CC2ON=C3c4ccc(NC(=O)OC(C)(C)C)cc4OCC32)CC1 (stereo not drawn) [Compound 58] | 63.1 | 31.6 | 31.6
CC(=Cc1cccc(F)c1)CN1CCN(CC2ON=C3c4ccc(N(C)CCO)cc4OCC32)CC1 (stereo not drawn) [Compound 35] | 3.16 | 1.26 | 7.94
CC(=Cc1ccc(F)cc1)CN1CCN(CC2ON=C3c4ccc(NCCN5CCOCC5)cc4OCC32)CC1 (stereo not drawn) [Compound 30] | 50.1 | 3.98 | 10
CNc1cc2c(cc1OC)C1=NOC(CN3CCN(CC(C)=Cc4ccccc4)CC3)C1CO2 (stereo not drawn) [Compound 88] | 5.01 | 1.26 | 20
COc1cc2c(cc1NC(=O)C1CC1)OCC1C2=NOC1CN1CCN(CC(C)=Cc2ccccc2)CC1 (stereo not drawn) [Compound 52] | 3.98 | 0.631 | 20
CC(=Cc1ccc(F)cc1)CN1CCN(CC2ON=C3c4ccc(N5CCC(C)C5=O)cc4OCC32)CC1 (stereo not drawn) [Compound 139] | 15.8 | 7.94 | 126
CCC(C)Nc1ccc2c(c1)OCC1C2=NOC1CN1CCN(CC(C)=Cc2ccc(F)cc2)CC1 (stereo not drawn) [Compound 131] | 158 | 50.1 | 63.1
CC(=Cc1ccc(F)cc1)CN1CCN(CC2ON=C3c4ccc(N(C)CCOC(=O)CC(C)(C)C)cc4OCC32)CC1 (stereo not drawn) [Compound 117] | 251 | 126 | 100
COc1cc2c(cc1N1CCOCC1)OCC1C2=NOC1CN1CCN(CC(C)=Cc2cccc(F)c2)CC1 (stereo not drawn) [Compound 83] | 7.94 | 2.51 | 15.8
COc1cc2c(cc1NCCN)OCC1C2=NOC1CN1CCN(CC(C)=Cc2ccc(F)cc2)CC1 (stereo not drawn) [Compound 97] | 31.6 | 6.31 | 15.8
CC(=Cc1ccc(F)cc1)CN1CCN(CC2ON=C3c4ccc(N(C)CCN(C)C(C)(C)C)cc4OCC32)CC1 (stereo not drawn) [Compound 122] | 39.8 | 7.94 | 6.31
C/C(=C\c1ccccc1)CN1CCN(CC2ON=C3c4cc5c(cc4OCC32)N(C)CCO5)CC1 (stereo not drawn) [Compound 14] | 15.8 | 5.01 | 31.6
COc1cc2c(cc1N1CCC1)OCC1C2=NOC1CN1CCN(CC(C)=Cc2ccc(F)cc2)CC1 (stereo not drawn) [Compound 102] | 20 | 15.8 | 50.1
CC(=Cc1cccc(F)c1)CN1CCN(CC2ON=C3c4ccc(N(C)CCN(C)C)cc4OCC32)CC1 (stereo not drawn) [Compound 22] | 1.58 | 1.26 | 1.58
CC(=Cc1ccc(F)cc1)CN1CCN(CC2ON=C3c4ccc(N(C)CCOC(=O)C5CC5)cc4OCC32)CC1 (stereo not drawn) [Compound 109] | 158 | 31.6 | 39.8
COc1cc2c(cc1NC(C)=O)OCC1C2=NOC1CN1CCN(C/C(C)=C/c2ccccc2)CC1 (stereo not drawn) [Compound 10] | 3.98 | 1.26 | 63.1
CC(=Cc1ccccc1)CN1CCN(CC2ON=C3c4ccc(NC(=O)c5ccccc5)cc4OCC32)CC1 (stereo not drawn) [Compound 55] | 5.01 | 3.16 | 25.1
CCC(C)NC(=O)OCCN(C)c1ccc2c(c1)OCC1C2=NOC1CN1CCN(CC(C)=Cc2ccc(F)cc2)CC1 (stereo not drawn) [Compound 127] | 316 | 158 | 200
CC(=Cc1ccc(F)cc1)CN1CCN(CC2ON=C3c4ccc(NCC(C)O)cc4OCC32)CC1 (stereo not drawn) [Compound 132] | 25.1 | 31.6 | 63.1
COc1cc2c(cc1NCCN1CCCC1)OCC1C2=NOC1CN1CCN(CC(C)=Cc2ccc(F)cc2)CC1 (stereo not drawn) [Compound 29] | 15.8 | 1.58 | 3.16
COc1cc2c(cc1N)OCC1C2=NOC1CN1CCN(C/C(C)=C/c2ccccc2)CC1 (stereo not drawn) [Compound 8] | 5.01 | 1.58 | 25.1
CC(=Cc1ccc(F)cc1)CN1CCN(CC2ON=C3c4ccc(NC(=O)C5CC5)cc4OCC32)CC1 (stereo not drawn) [Compound 138] | 31.6 | 31.6 | 50.1
COc1cc2c(cc1N(C)CCO)OCC1C2=NOC1CN1CCN(CC(C)=Cc2cccc(F)c2)CC1 (stereo not drawn) [Compound 36] | 20 | 2.51 | 25.1
COc1cc2c(cc1N(C)CCO)OCC1C2=NOC1CN1CCN(CC(C)=Cc2ccc(F)cc2)CC1 (stereo not drawn) [Compound 39] | 50.1 | 10 | 79.4
COc1cc2c(cc1NC(=O)C1CC1)OCC1C2=NOC1CN1CCN(CC(C)=Cc2cccc(F)c2)CC1 (stereo not drawn) [Compound 53] | 3.98 | 0.631 | 10
